Reference: ChEMBL document CHEMBL1152980, “Identification of enoxacin as an inhibitor of osteoclast formation and bone resorption by structure-based virtual screening” (J Med Chem, 2009)
The source made the active and inactive calls. The calls are words filed in the database; no cut-off is given here.

How the values were obtained:
[1] = (§1) Antiresorptive activity against 1,25-dihydroxyvitamin D3-stimulated osteoclast formation in Swiss Webster mouse bone marrow cells assessed as reduction of tartrate-resistant acid phosphatase activity after 7 days; assay type: functional, cell-based; details: Bone marrow cell, 168 h
Osteoclast [2] = experiment: Antiresorptive activity in 1,25-dihydroxyvitamin D3-stimulated Swiss Webster mouse osteoclast assessed as blockade of ruffled membrane formation on bone slices at 10 uM after 3 days; assay type: functional, cell-based
Osteoclast [3] = experiment: Antiresorptive activity in 1,25-dihydroxyvitamin D3-stimulated Swiss Webster mouse osteoclast assessed as blockade of ruffled membrane formation on bone slices at 100 uM after 3 days; assay type: functional, cell-based
Bone marrow cell [4] = experiment: Antiresorptive activity in 1,25-dihydroxyvitamin D3-stimulated Swiss Webster mouse bone marrow cells assessed as reduction in resorptive area at 25 uM after 5 days; assay type: functional, cell-based
Bone marrow cell [5] = experiment: Antiresorptive activity in 1,25-dihydroxyvitamin D3-stimulated Swiss Webster mouse bone marrow cells at 100 uM after 5 days; assay type: functional, cell-based
Bone marrow cell [6] = experiment: Antiresorptive activity in 1,25-dihydroxyvitamin D3-stimulated Swiss Webster mouse bone marrow cells assessed as reduction in bone pit formation at 10 uM after 5 days; assay type: functional, cell-based
Bone marrow cell [7] = experiment: Antiresorptive activity in 1,25-dihydroxyvitamin D3-stimulated Swiss Webster mouse bone marrow cells assessed as reduction in bone pit formation at 25 uM after 5 days; assay type: functional, cell-based
[8] = Reduction in osteoblast formation from mouse MC3T3-E1 cells assessed as alkaline phosphatase activity at 100 uM after 3 days; assay type: cell-based; details: mc3t3-e1, 72 h
[9] = Reduction in mouse MC3T3-E1 cell growth at 100 uM after 3 days; assay type: cell-based; details: mc3t3-e1, 72 h
[10] = Cytotoxicity against mouse MC3T3-E1 cells assessed as change in morphology at 100 uM after 3 days; assay type: cell-based; details: mc3t3-e1, 72 h
[11] = biological target: V-type proton ATPase subunit B (Saccharomyces cerevisiae S288c) (UniProt P16140); experiment: Inhibition of Saccharomyces cerevisiae V-ATPase subunit B expressed in Escherichia coli binding to rabbit muscle actin filament at 100 uM by pelleting assay; details: Muscle tissue
[12] = biological target: V-type proton ATPase subunit B, brain isoform (Homo sapiens, UniProt P21281); experiment: Inhibition of maltose binding protein-fused human V-ATPase subunit B2 binding to F-actin
Bone marrow cell [13] = experiment: as §1; assay type: functional, cell-based
Bone marrow cell [14] = experiment: Antiresorptive activity in 1,25-dihydroxyvitamin D3-stimulated Swiss Webster mouse bone marrow cells after 5 days; assay type: functional, cell-based
Osteoclast [15] = experiment: Antiresorptive activity in 1,25-dihydroxyvitamin D3-stimulated Swiss Webster mouse osteoclast assessed as blockade of actin ring formation on bone slices at 1 uM after 3 days; assay type: functional, cell-based
Osteoclast [16] = experiment: Antiresorptive activity in 1,25-dihydroxyvitamin D3-stimulated Swiss Webster mouse osteoclast assessed as blockade of ruffled membrane formation on bone slices at 1 uM after 3 days; assay type: functional, cell-based
Osteoclast [17] = experiment: Antiresorptive activity in 1,25-dihydroxyvitamin D3-stimulated Swiss Webster mouse osteoclast assessed as blockade of actin ring formation on bone slices at 10 uM after 3 days; assay type: functional, cell-based
Osteoclast [18] = experiment: Antiresorptive activity in 1,25-dihydroxyvitamin D3-stimulated Swiss Webster mouse osteoclast assessed as blockade of actin ring formation on bone slices at 100 uM after 3 days; assay type: functional, cell-based

Chain of V-type proton ATPase subunit B, brain isoform (P21281 whole entry, the tested form may be a part, canonical isoform): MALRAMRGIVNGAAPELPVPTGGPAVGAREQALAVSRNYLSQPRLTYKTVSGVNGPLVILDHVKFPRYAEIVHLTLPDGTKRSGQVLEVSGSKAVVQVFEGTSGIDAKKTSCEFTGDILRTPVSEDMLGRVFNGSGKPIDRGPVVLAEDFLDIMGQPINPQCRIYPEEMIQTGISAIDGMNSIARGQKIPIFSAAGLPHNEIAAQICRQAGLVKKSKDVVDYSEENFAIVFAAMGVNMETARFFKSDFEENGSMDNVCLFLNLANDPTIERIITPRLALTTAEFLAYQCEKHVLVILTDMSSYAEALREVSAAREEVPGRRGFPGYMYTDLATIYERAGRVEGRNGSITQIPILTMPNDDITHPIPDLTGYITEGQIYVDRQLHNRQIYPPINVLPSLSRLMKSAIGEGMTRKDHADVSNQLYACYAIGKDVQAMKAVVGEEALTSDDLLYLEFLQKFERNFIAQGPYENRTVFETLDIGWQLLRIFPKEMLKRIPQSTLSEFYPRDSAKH
Chain of V-type proton ATPase subunit B (Saccharomyces cerevisiae S288c) (P16140 whole entry, the tested form may be a part, canonical isoform): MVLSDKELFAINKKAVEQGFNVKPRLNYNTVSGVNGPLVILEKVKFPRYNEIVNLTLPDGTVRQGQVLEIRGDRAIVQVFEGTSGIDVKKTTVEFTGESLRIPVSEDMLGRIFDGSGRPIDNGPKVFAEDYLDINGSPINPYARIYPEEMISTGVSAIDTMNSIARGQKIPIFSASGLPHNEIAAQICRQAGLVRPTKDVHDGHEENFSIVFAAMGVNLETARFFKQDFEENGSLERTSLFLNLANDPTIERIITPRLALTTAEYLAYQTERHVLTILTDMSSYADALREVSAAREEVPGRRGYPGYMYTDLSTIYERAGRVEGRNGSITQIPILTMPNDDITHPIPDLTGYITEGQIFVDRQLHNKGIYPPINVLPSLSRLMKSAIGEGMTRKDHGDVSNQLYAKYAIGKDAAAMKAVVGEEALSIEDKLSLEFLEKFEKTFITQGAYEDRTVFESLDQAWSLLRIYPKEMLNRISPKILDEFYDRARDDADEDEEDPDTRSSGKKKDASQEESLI

SMILES	IC50 [1] [µM]	Activity (Osteoclast [2])	Activity (Osteoclast [3])	Activity (Bone marrow cell [4])	Activity (Bone marrow cell [5])	Activity (Bone marrow cell [6])	Activity (Bone marrow cell [7])	Activity [8]	Activity [9]	Activity [10]	inhibition [11]	IC50 [12] [µM]	Activity (Bone marrow cell [13])	Activity (Bone marrow cell [14])	Activity (Osteoclast [15])	Activity (Osteoclast [16])	Activity (Osteoclast [17])	Activity (Osteoclast [18])
CCn1cc(C(=O)O)c(=O)c2cc(F)c(N3CCN(C)CC3)cc21 [PEFLOXACIN]	> 50																	
CCn1cc(C(=O)O)c(=O)c2cc(F)c(N3CCNCC3)nc21 [ENOXACIN]		Active	Active	Active	Active	Active	Active	Toxic	Toxic	Toxic	Active	10	Dose-dependent effect	Dose-dependent effect	inactive	inactive	Active	Active
